According to US4544658A, “1-Cyclopropyl-6-fluoro-1,4-dih ydro-4-oxo-7-(alkyl-1-piperazinyl)quinoline-3-carboxylic acids, processes for their preparation and antibacterial agents containing them” (Bayer Aktiengesellschaft, priority 1982, dated 1985):
In brackets after ≈: the same amount, converted by molar mass.

Key:
Assay in all cases: MIC, agar dilution test; Denley multipoint inoculation procedure
Format in all cases: cell-based
E. coli Neumann = conditions: Escherichia coli, read-out: Minimum inhibitory concentration (MIC)
Klebsiella 8085 = conditions: read-out: Minimum inhibitory concentration (MIC)
Klebsiella 6179 = conditions: read-out: Minimum inhibitory concentration (MIC)
Klebsiella 57 USA = conditions: read-out: Minimum inhibitory concentration (MIC)
Providencia 12052 = conditions: read-out: Minimum inhibitory concentration (MIC)
Serratia 16040 = conditions: read-out: Minimum inhibitory concentration (MIC)
Staphylococcus Fk422 = conditions: read-out: Minimum inhibitory concentration (MIC)
Staphylococcus 1756 = conditions: read-out: Minimum inhibitory concentration (MIC)
Staphylococcus 133 = conditions: read-out: Minimum inhibitory concentration (MIC)

MIC (E. coli Neumann) [µg/mL]	MIC (Klebsiella 8085) [µg/mL]	MIC (Klebsiella 6179) [µg/mL]	MIC (Klebsiella 57 USA) [µg/mL]	MIC (Providencia 12052) [µg/mL]	MIC (Serratia 16040) [µg/mL]	MIC (Staphylococcus Fk422) [µg/mL]	MIC (Staphylococcus 1756) [µg/mL]	MIC (Staphylococcus 133) [µg/mL]	Structure (SMILES)
≤ 0.015	≤ 0.015	0.125	0.03	16	4	0.25	0.25	0.25	CC1CN(c2cc3c(cc2F)c(=O)c(C(=O)O)cn3C2CC2)CCN1 (stereo not drawn) [Example 1, 1-cyclopropyl-6-fluoro-1,4-dihydro-4-oxo-7-(3-methyl-1-piperazinyl)quinoline-3-carboxylicacid semihydrate]
≤ 0.015	≤ 0.015	0.25 (≈ 0.696 µM)	0.125 (≈ 0.348 µM)	16 (≈ 44.5 µM)	16 (≈ 44.5 µM)	0.5 (≈ 1.39 µM)	0.25 (≈ 0.696 µM)	0.25 (≈ 0.696 µM)	C[C@@H]1CN(c2cc3c(cc2F)c(=O)c(C(=O)O)cn3C2CC2)C[C@H](C)N1 [Example 3, 1-cyclopropyl-6-fluoro-1,4-dihydro-4-oxo-7-(3,5-dimethyl-1-piperazinyl)quinoline-3-carboxylic acid]
0.03	≤ 0.015	0.25	0.25	32	16	0.5	0.5	0.25	CCN1CCN(c2cc3c(cc2F)c(=O)c(C(=O)O)cn3C2CC2)CC1C.I.O (stereo not drawn) [Example 4, 1-cyclopropyl-6-fluoro-1,4-dihydro-4-oxo-7-(4-ethyl-3-methyl-1-piperazinyl)quinoline-3-carboxylic acid hydriodide monohydrate]
0.03 (≈ 0.0774 µM)	0.03 (≈ 0.0774 µM)	0.5 (≈ 1.29 µM)	0.5 (≈ 1.29 µM)	32 (≈ 82.6 µM)	32 (≈ 82.6 µM)	0.5 (≈ 1.29 µM)	0.5 (≈ 1.29 µM)	0.5 (≈ 1.29 µM)	CCN1[C@H](C)CN(c2cc3c(cc2F)c(=O)c(C(=O)O)cn3C2CC2)C[C@@H]1C [Example 5, 1-cyclopropyl-6-fluoro-1,4-dihydro-4-oxo-7-(4-ethyl-3,5-dimethyl-1-piperazinyl)quinoline-3-carboxylic acid hydriodide]
